According to patent US20240226098A1, “COMPOUNDS AND METHODS FOR MODULATING SPLICING” (REMIX THERAPEUTICS INC., priority 2020, published 2024):
Counter-ions that a name gives are not always drawn.

Legend:
Format in all cases: cell-based
[1] = system: HTT mRNA, canonical junction (CJ); assay: Splicing assay (RT-qPCR): decrease in HTT canonical junction (CJ) mRNA; settings: A673 or K562 cell line, 24 hours treatment, top dose 10 uM; concentration having 50% response in CJ decrease
Description: (§1) Compounds described herein were used to modulate RNA transcript abundance in cells. The expression of a target mRNA was measured by detecting the formation of an exon-exon junction in the canonical transcript (CJ). A compound mediated exon-inclusion event was detected by observing an increase in formation of a new junction with an alternative exon (AJ). Real-time qPCR assays were used to detect these splicing switches and interrogate the potency of various compounds towards different target genes. A high-throughput real time quantitative PCR (RT-qPCR) assay was developed to measure these two isoforms of the mRNA (CJ and AJ) for an exemplary gene, HTT, together with a control housekeeping gene, GAPDH or GUSB or PPIA, used for normalization. Briefly, the A673 or K562 cell line was treated with various compounds described herein (e.g., compounds of Formula (I)). After treatment, the levels of the HTT mRNA targets were determined from each sample of cell lysate by cDNA synthesis followed by qPCR.
(§2) • Cells-to-CT 1-step kit: ThermoFisher A25602, Cells-to-CT lysis reagent: ThermoFisher 4391851C, TaqMan™ Fast Virus 1-Step Master Mix: ThermoFisher 4444436 • GAPDH: VIC-PL, ThermoFisher 4326317E (Assay: Hs99999905_ml)—used for K562/suspension cell lines • GUSB: VIC-PL, ThermoFisher 4326320E (Assay: Hs99999908_ml)—used for K562/suspension cell lines • PPIA: VIC-PL, ThermoFisher 4326316E (Assay: Hs99999904_ml)—used for A673/adherent cell lines
(§3) The A673 cell line was cultured in DMEM with 10% FBS. Cells were diluted with full growth media and plated in a 96-well plate (15,000 cells in 100 ul media per well). The plate was incubated at 37° C. with 5% CO2 for 24 hours to allow cells to adhere. An 11-point 3-fold serial dilution of the compounds was made in DMSO then diluted in media in an intermediate plate. Compounds were transferred from the intermediate plate to the cell plate with the top dose at a final concentration of 10 uM in the well. Final DMSO concentration was kept at or below 0.25%. The cell plate was returned to the incubator at 37° C. with 5% CO2 for an additional 24 hours.
(§4) The K562 cell line was cultured in IMDM with 10% FBS. For K562, cells were diluted with full growth media and plated in either a 96-well plate (50,000 cells in 50 uL media per well) or a 384-well plate (8,000-40,000 cells in 45 uL media per well). An 11-point 3-fold serial dilution of the compounds were made in DMSO then diluted in media in an intermediate plate. Compound was transferred from the intermediate plate to the cell plate with the top dose at a final concentration of 10 uM in the well. Final DMSO concentration was kept at or below 0.25%. Final volume was 100 uL for 96-well plate and 50 uL for 384-well plate. The cell plate was then placed in an incubator at 37° C. with 5% CO2 for 24 hours.
(§5) The cells were then gently washed with 50 uL-100 uL cold PBS before proceeding to addition of lysis buffer. 30 uL-50 uL of room temperature lysis buffer with DNAse I (and optionally RNAsin) was added to each well. Cells were shaken/mixed thoroughly at room temperature for 5-10 minutes for lysis to take place and then 3 uL-5 uL of room temperature stop solution was added and wells were shaken/mixed again. After 2-5 minutes, the cell lysate plate was transferred to ice for RT-qPCR reaction setup. The lysates could also be frozen at −80° C. for later use.
(§6) In some cases, a direct lysis buffer was used. An appropriate volume of 3× lysis buffer (10 mM Tris, 150 mM NaCl, 1.5%-2.5% Igepal and 0.1-1 U/uL RNAsin, pH 7.4) was directly added to either K562 or A673 cells in media and mixed by pipetting 3 times. The plates were then incubated at room temperature with shaking/rocking for 20-50 minutes to allow for lysis to take place. After this time, the cell lysate plate was transferred to ice to set up for the RT-qPCR reactions. The lysates could also be frozen at −80° C. for later use. […]

Target C CJ mRNA = assay: Gene panel canonical junction qPCR assay: decrease in Target C CJ mRNA; settings: protocol as for Table 2, read-out: Target C (IC50, decrease in CJ mRNA levels)
Description: as §1, §3, §4, §5
(§7) In some cases, a direct lysis buffer was used. An appropriate volume of 3× lysis buffer (10 mM Tris, 150 mM NaCl, 1.5%-2.5% Igepal and 0.1-1 U/uL RNAsin, pH 7.4) was directly added to either K562 or A673 cells in media and mixed by pipetting 3 times. The plates were then incubated at room temperature with shaking/rocking for 20-50 minutes to allow for lysis to take place. After this time, the cell lysate plate was transferred to ice to set up for the RT-qPCR reactions. The lysates could also be frozen at −80° C. for later use.
(§8) To set up 10 uL RT-qPCR reactions, cell lysates were transferred to 384-well qPCR plates containing the master mix according to the table below. The plates were sealed, gently vortexed, and spun down before the run. The volumes were adjusted accordingly in some instances where the reaction was carried in 20 uL. The table below summarizes the components of the RT-qPCR reactions:
(§9) The RT-qPCR reaction was performed using a QuantStudio (ThermoFisher) under the following fast cycling conditions. […]

HTT CJ mRNA = assay: Gene panel canonical junction qPCR assay: decrease in HTT CJ mRNA; settings: protocol as for Table 2, read-out: HTT (IC50, decrease in CJ mRNA levels)
Description: as §1, §3, §4, §5, §7, §8, §9

[2] = system: HTT mRNA, alternative junction (AJ); assay: Splicing assay (RT-qPCR): increase in HTT alternative junction (AJ) mRNA; settings: A673 or K562 cell line, 24 hours treatment, top dose 10 uM; concentration having 50% response in AJ increase
Description: as §1, §2, §3, §4, §5, §6

SMN2 CJ mRNA = assay: Gene panel canonical junction qPCR assay: decrease in SMN2 CJ mRNA; settings: protocol as for Table 2, read-out: SMN2 (IC50, decrease in CJ mRNA levels)
Description: as §1, §3, §4, §5, §7, §8, §9

Row | Structure (SMILES) | AC50 [1] | IC50 (Target C CJ mRNA) | IC50 (HTT CJ mRNA) | AC50 [2] | IC50 (SMN2 CJ mRNA)
1 | Cc1cn2cc(NC(=O)c3ccc(N4CC5(CNC5)C4)c4ccnnc34)cc(F)c2n1 [Compound 131, 5-[2,6-diazaspiro[3.3]heptan-2-yl]-N-[8-fluoro-2-methylimidazo[1,2-a]pyridin-6-yl]cinnoline-8-carboxamide] | 1000 to 10000 nM | 100 to 1000 nM | 1000 to 10000 nM | 1000 to 10000 nM | < 100 nM
2 | Cc1cn2cc(NC(=O)c3ccc(N4CC5(CN(C)C5)C4)c4ccnnc34)cc(F)c2n1 [Compound 132, N-[8-fluoro-2-methylimidazo[1,2-a]pyridin-6-yl]-5-[6-methyl-2,6-diazaspiro[3.3]heptan-2-yl]cinnoline-8-carboxamide] | 1000 to 10000 nM | < 100 nM | 1000 to 10000 nM | 1000 to 10000 nM | < 100 nM
3 | Cc1cn2cc(NC(=O)c3ccc(N4CCC(N(C)C)CC4)c4ccnnc34)cc(F)c2n1 [Compound 137, 5-[4-(dimethylamino)piperidin-1-yl]-N-[8-fluoro-2-methylimidazo[1,2-a]pyridin-6-yl] cinnoline-8-carboxamide] | 100 to 1000 nM | 100 to 1000 nM | 100 to 1000 nM | 100 to 1000 nM | < 100 nM
4 | Cc1cn2cc(NC(=O)c3ccc(N4CCN5CCCC5C4)c4ccnnc34)cc(F)c2n1 (stereo in doubt) [Compound 154, 5-[(8aR)-hexahydro-1H-pyrrolo[1,2-a]pyrazin-2-yl]-N-[8-fluoro-2-methylimidazo[1,2-a]pyridin-6-yl]cinnoline-8-carboxamide] | 1000 to 10000 nM | 100 to 1000 nM | 1000 to 10000 nM | 1000 to 10000 nM | < 100 nM
5 | Cc1cn2cc(NC(=O)c3ccc(N4C[C@H]5CC[C@@H](C4)N5)c4ccnnc34)cc(F)c2n1 [Compound 108] | 1000 to 10000 nM | 100 to 1000 nM | 1000 to 10000 nM | 1000 to 10000 nM | < 100 nM
6 | Cc1cn2cc(NC(=O)c3ccc(N4CCC(NC(C)(C)C)C4)c4ccnnc34)cc(F)c2n1 (stereo not shown) [Compound 109, 5-[3-(tert-butylamino)pyrrolidin-1-yl]-N-[8-fluoro-2-methylimidazo[1,2-a]pyridin-6-yl]cinnoline-8-carboxamide] | 1000 to 10000 nM | – | 1000 to 10000 nM | 1000 to 10000 nM | 100 to 1000 nM
7 | Cc1cn2cc(NC(=O)c3ccc(N(C)C4CC(C)(C)NC(C)(C)C4)c4ccnnc34)cc(F)c2n1 [Compound 135, N-[8-fluoro-2-methylimidazo[1,2-a]pyridin-6-yl]-5-[methyl(2,2,6,6-tetramethylpiperidin-4-yl)amino]cinnoline-8-carboxamide] | 100 to 1000 nM | – | – | 1000 to 10000 nM | –
8 | Cc1cn2cc(NC(=O)c3ccc(N4CCNC5(CC5)C4)c4ccnnc34)cc(F)c2n1 [Compound 105, 5-[4,7-diazaspiro [2.5]octan-7-yl]-N-[8-fluoro-2-methylimidazo[1,2-a]pyridin-6-yl] cinnoline-8-carboxamide hydrochloride] | 1000 to 10000 nM | – | – | 1000 to 10000 nM | –
9 | Cc1cn2cc(NC(=O)c3ccc(N4CCNCC4)c4ncnnc34)cc(F)c2n1 [Compound 110, N-[8-fluoro-2-methylimidazo[1,2-a]pyridin-6-yl]-5-(piperazin-1-yl)-1,2,4-benzotriazine-8-carboxamide] | 1000 to 10000 nM | – | – | 1000 to 10000 nM | –
10 | Cc1cn2cc(NC(=O)c3ccc(N4CCNC(C)(C)C4)c4ccnnc34)cc(F)c2n1 [Compound 106, 5-(3,3-dimethylpiperazin-1-yl)-N-[8-fluoro-2-methylimidazo[1,2-a]pyridin-6-yl] cinnoline-8-carboxamide hydrochloride] | 100 to 1000 nM | – | – | 1000 to 10000 nM | –
11 | Cc1cn2cc(NC(=O)c3ccc(N4CCN(C)C(C)C4)c4ccnnc34)cc(F)c2n1 (stereo not shown) [Compound 129, 5-(3,4-dimethylpiperazin-1-yl)-N-[8-fluoro-2-methylimidazo [1,2-a]pyridin-6-yl]cinnoline-8-carboxamide] | 1000 to 10000 nM | – | 1000 to 10000 nM | 1000 to 10000 nM | < 100 nM
12 | COc1ccc2c(N3CCNCC3)ccc(-c3cc(F)c4nc(C)cn4c3)c2n1 [Compound 114, 8-[8-fluoro-2-methylimidazo[1,2-a]pyridin-6-yl]-2-methoxy-5-(piperazin-1-yl) quinoline] | > 10000 nM | – | > 10000 nM | > 10000 nM | > 10000 nM
13 | Cc1cn2cc(NC(=O)c3ccc(N4CC(C)(C)NC(C)(C)C4)c4ccnnc34)cc(F)c2n1 [Compound 104, N-[8-fluoro-2-methylimidazo[1,2-a]pyridin-6-yl]-5-(3,3,5,5-tetramethylpiperazin-1-yl) cinnoline-8-carboxamide] | 1000 to 10000 nM | – | – | 1000 to 10000 nM | –
14 | Cc1cn2cc(NC(=O)c3ccc(N(C)C4CCN(C)CC4)c4ccnnc34)cc(F)c2n1 [Compound 136, N-[8-fluoro-2-methylimidazo[1,2-a]pyridin-6-yl]-5-[methyl(1-methylpiperidin-4-yl)amino] cinnoline-8-carboxamide] | 1000 to 10000 nM | – | – | 1000 to 10000 nM | –
15 | Cc1cn2cc(-c3ccc(N4CCNCC4)c4ccc(O)nc34)cc(F)c2n1 [Compound 144, 8-[8-fluoro-2-methylimidazo[1,2-a]pyridin-6-yl]-5-(piperazin-1-yl)quinolin-2-ol] | > 10000 nM | – | > 10000 nM | > 10000 nM | > 10000 nM
16 | Cc1cn2cc(NC(=O)c3ccc(N4CCN5CCCC5C4)c4ccnnc34)cc(F)c2n1 (stereo not shown) [Compound 107] | 1000 to 10000 nM | – | – | 100 to 1000 nM | –
17 | CCNC1CCN(c2ccc(C(=O)Nc3cc(F)c4nc(C)cn4c3)c3nnccc23)CC1 [Compound 139, 5-[4-(ethylamino)piperidin-1-yl]-N-[8-fluoro-2-methylimidazo[1,2-a]pyridin-6-yl]cinnoline-8-carboxamide] | 1000 to 10000 nM | – | – | 1000 to 10000 nM | –
18 | CCC1CN(c2ccc(C(=O)Nc3cc(F)c4nc(C)cn4c3)c3nnccc23)CCN1 (stereo not shown) [Compound 130, 5-(3-ethylpiperazin-1-yl)-N-[8-fluoro-2-methylimidazo[1,2-a]pyridin-6-yl] cinnoline-8-carboxamide hydrochloride] | 1000 to 10000 nM | – | 1000 to 10000 nM | 1000 to 10000 nM | < 100 nM
